# In ChEMBL document CHEMBL1255438, “Comparative activities of TR-700 (torezolid) against staphylococcal blood isolates collected in Spain” (2010):
# Assays:
# Format in all cases: functional
# Staphylococcus aureus [1] = experiment: Antimicrobial activity against linezolid-resistant Staphylococcus aureus by CLSI method
# Staphylococcus [2] = experiment: Antimicrobial activity against linezolid-resistant coagulase-negative Staphylococcus by CLSI method
# Staphylococcus aureus [3] = experiment: Antimicrobial activity against oxacillin-resistant Staphylococcus aureus assessed as inhibition of microbial growth at =< 0.25 ug/ml by CLSI method
# Staphylococcus aureus [4] = experiment: Antimicrobial activity against oxacillin-susceptible Staphylococcus aureus assessed as inhibition of microbial growth at 0.5 ug/ml by CLSI method
# Staphylococcus aureus [5] = experiment: Ratio of Linezolid MIC50 to compound MIC50 for Linezolid-susceptible Staphylococcus aureus
# Staphylococcus [6] = experiment: Antimicrobial activity against linezolid-resistant coagulase-negative Staphylococcus assessed as inhibition of microbial growth at =< 0.25 ug/ml by CLSI method
# Staphylococcus aureus [7] = experiment: Antimicrobial activity against oxacillin-resistant Staphylococcus aureus assessed as inhibition of microbial growth at 0.5 ug/ml by CLSI method
# Staphylococcus [8] = experiment: Antimicrobial activity against linezolid-susceptible coagulase-negative Staphylococcus by CLSI method
# Staphylococcus aureus [9] = experiment: Antimicrobial activity against linezolid-susceptible Staphylococcus aureus assessed as inhibition of microbial growth at 0.5 ug/ml by CLSI method
# Staphylococcus [10] = experiment: Antimicrobial activity against linezolid-resistant coagulase-negative Staphylococcus assessed as inhibition of microbial growth at 4 ug/ml by CLSI method
# Staphylococcus [11] = experiment: Antimicrobial activity against linezolid-resistant coagulase-negative Staphylococcus assessed as inhibition of microbial growth at 0.5 ug/ml by CLSI method
# Staphylococcus aureus [12] = experiment: Antimicrobial activity against oxacillin-resistant Staphylococcus aureus by CLSI method
# Staphylococcus aureus [13] = experiment: Antimicrobial activity against linezolid-susceptible Staphylococcus aureus assessed as inhibition of microbial growth at =< 0.25 ug/ml by CLSI method
# Staphylococcus [14] = experiment: Antimicrobial activity against oxacillin-susceptible coagulase-negative Staphylococcus aureus by CLSI method
# Staphylococcus aureus [15] = experiment: Antimicrobial activity against oxacillin-susceptible Staphylococcus aureus by CLSI method
# Staphylococcus [16] = experiment: Antimicrobial activity against oxacillin-resistant coagulase-negative Staphylococcus aureus by CLSI method
# Staphylococcus [17] = experiment: Antimicrobial activity against linezolid-susceptible coagulase-negative Staphylococcus assessed as inhibition of microbial growth at 0.5 ug/ml by CLSI method
# Staphylococcus aureus [18] = experiment: Antimicrobial activity against oxacillin-susceptible Staphylococcus aureus assessed as inhibition of microbial growth at =< 0.25 ug/ml by CLSI method
# Staphylococcus aureus [19] = experiment: Antimicrobial activity against linezolid-resistant Staphylococcus aureus assessed as inhibition of microbial growth at 0.5 ug/ml by CLSI method
# Staphylococcus [20] = experiment: Antimicrobial activity against Linezolid and methicillin-resistant coagulase-negative Staphylococcus by CLSI method
# Staphylococcus aureus [21] = experiment: Ratio of Linezolid to compound activity for cfr-expressing methicillin-resistant Staphylococcus aureus
# Staphylococcus [22] = experiment: Antimicrobial activity against teicoplanin and methicillin-resistant coagulase-negative Staphylococcus by CLSI method
# Staphylococcus [23] = experiment: Antimicrobial activity against linezolid-resistant coagulase-negative Staphylococcus assessed as inhibition of microbial growth at 1 ug/ml by CLSI method
# Staphylococcus aureus [24] = experiment: Ratio of Linezolid MIC90 to compound MIC90 for Linezolid-susceptible Staphylococcus aureus
# Staphylococcus [25] = experiment: Antimicrobial activity against linezolid-resistant coagulase-negative Staphylococcus assessed as inhibition of microbial growth at 2 ug/ml by CLSI method
# Staphylococcus aureus [26] = experiment: Antimicrobial activity against methicillin-resistant Staphylococcus aureus by CLSI method
# Staphylococcus aureus [27] = experiment: Antimicrobial activity against linezolid-susceptible Staphylococcus aureus by CLSI method
# Staphylococcus aureus [28] = experiment: Antimicrobial activity against oxacillin-susceptible coagulase-negative Staphylococcus aureus assessed as inhibition of microbial growth at =< 0.25 ug/ml by CLSI method
# Staphylococcus [29] = experiment: Antimicrobial activity against linezolid-susceptible coagulase-negative Staphylococcus assessed as inhibition of microbial growth at =< 0.25 ug/ml by CLSI method
smiles,measurement,setting,value
Cn1nnc(-c2ccc(-c3ccc(N4C[C@H](CO)OC4=O)cc3F)cn2)n1 [TEDIZOLID],MIC50,Staphylococcus aureus [1],0.5 µg/mL
same,MIC50,Staphylococcus [2],2 µg/mL
same,inhibition (INH),Staphylococcus aureus [3],70%
same,inhibition at 0.5 µg/mL,Staphylococcus aureus [4],100%
same,Ratio,Staphylococcus aureus [5],8
same,inhibition (INH),Staphylococcus [6],20%
same,inhibition at 0.5 µg/mL,Staphylococcus aureus [7],100%
same,MIC50,Staphylococcus [8],0.25 µg/mL
same,MIC90,Staphylococcus [8],0.25 µg/mL
same,inhibition at 0.5 µg/mL,Staphylococcus aureus [9],100%
same,inhibition at 4 µg/mL,Staphylococcus [10],100%
same,inhibition at 0.5 µg/mL,Staphylococcus [11],20%
same,MIC50,Staphylococcus aureus [12],0.25 µg/mL
same,MIC90,Staphylococcus aureus [12],0.5 µg/mL
same,inhibition (INH),Staphylococcus aureus [13],83.1%
same,MIC50,Staphylococcus [14],0.25 µg/mL
same,MIC90,Staphylococcus [14],0.25 µg/mL
same,MIC50,Staphylococcus aureus [15],0.25 µg/mL
same,MIC90,Staphylococcus aureus [15],0.25 µg/mL
same,MIC50,Staphylococcus [16],0.125 µg/mL
same,MIC90,Staphylococcus [16],0.25 µg/mL
same,inhibition at 0.5 µg/mL,Staphylococcus [17],100%
same,inhibition (INH),Staphylococcus aureus [18],99%
same,inhibition at 0.5 µg/mL,Staphylococcus aureus [19],100%
same,MIC,Staphylococcus [20],0.25 µg/mL
same,Ratio,Staphylococcus aureus [21],32
same,MIC,Staphylococcus [22],0.25 µg/mL
same,inhibition at 1 µg/mL,Staphylococcus [23],20%
same,Ratio,Staphylococcus aureus [24],4
same,inhibition at 2 µg/mL,Staphylococcus [25],80%
same,MIC,Staphylococcus aureus [26],0.5 µg/mL
same,MIC50,Staphylococcus aureus [27],0.25 µg/mL
same,MIC90,Staphylococcus aureus [27],0.5 µg/mL
same,inhibition (INH),Staphylococcus aureus [28],100%
same,inhibition (INH),Staphylococcus [29],99.5%
